Measurements as given in patent publication US6160087A, “Peptides having an amino acid sequence from the fimbrial protein of porphyromonas gingivalis and their uses” (priority 1993, dated 2000).
Where no end group is shown, it is not given here.

Assays:
[1] = test system: anti-Porphyomonas gingivalis fimbria antibodies contained in sera of patients with periodontal disease; experiment: Assay of the specific antibody in serum using plates coated with peptide-modified BSA (ELISA); format: binding, human; conditions: average absorbance (405 nm) of 3 specimens, serum diluted 100 times
Description: One mg of each peptide synthesized in Example 2 was dissolved in 1 ml of 0.1 M phosphate buffered saline (PBS, pH 6.0), 5 mg of sulfated SMCC (made by Pierce Co.) was added, and the mixture was incubated at 30° C. for 30 minutes to conduct maleimidization, and then subjected to Sephadex G-10 column chromatography, and the first eluate fraction was collected. 7 mg of bovine serum albumin (BSA: made by Wako Pure Chemical Industries, Ltd.) was dissolved in 1 ml of 0.1 M phosphate buffer (pH 6.0), 10 mM EDTA, the solution was mixed with the above maleimidized peptide, and the mixture was subjected to reaction at 30° C. for 1 hour. The resultant peptide-modified BSA was subjected to Sephadex G-50 column chromatography, and the first eluate fraction was collected as a plate-preparing antigen solution.
Then, six kind of peptides were synthesized after the process of Example 2, and a plate-preparing antigen solution was similarly prepared as a control.
Each of the resultant antigen solutions was diluted with 0.1 M carbonate buffer (pH 9.6), 150 mM NaCl to give 100 ml of a solution. 10 μl/well of the solution was put in a polystyrene-made microtiter plate (Immunoplate II; maxisorp type; made by Nunc Co.) and left alone at 4° C. overnight, and washing was conducted three times each with 200 μl/well of PBS, using a microtiter automatic washer (hereafter abbreviated as washer; made by Bio-Rad Laboratories). 250 μl/well of PBS containing 0.1% gelatin (made by Nitta Gelatin Co., Ltd.) was added and the mixture was allowed to stand at 4° C. overnight to block the plate. The blocking solution was removed by absorption, and the plate was dried by a vacuum dryer, put in an aluminum bag, and after sealing the bag, kept at 4° C. for the following assay.
Sera of patients of periodontal disease (n=3) and normal subjects (n=3) were used as samples, and each serum was diluted 100 times with PBS containing 10% bovine serum. 100 μl portions of these dilutions were added to the plates coated with various antigens, respectively, and incubation was conducted at 37° C. for 1 hour. Each plate was washed three times with 200 μl of PBST using the washer, 100 μl of a commercially available […] (diluted 10^3 times)/0.1% Casein/PBST was added as a secondary antibody, and incubation was conducted again at 37° C. for 1 hour. The plate was washed in the same manner as above, 100 μl of an o-phenylenediamine solution was added, incubation was conducted at 37° C. for 30 minutes, 100 μl of 0.1 N sulfuric acid was added to stop the reaction, and then, absorbance (405 nm) was measured by a microplate reader (made by Bio-Rad Laboratories) using the reaction well of no addition of the specimen as a control. The measures values are average absorbances of 3 specimens each of the patient group of periodontal disease and the normal subject group.

Porphyomonas gingivalis = format: in vivo, guinea pig; conditions: with FCA; for Degree of redness Longest length × shortest length: 500 μg/animal, inoculation on the 28th day, 24 hours later; for Inhibition rate: relative to the FIA inoculation group
Description: Each peptide synthesized in Example 2 was administered together with FIA (Freund's incomplete adjuvant) or FCA (Freund's complete adjuvant), as a water-in-oil type emulsifier, into the sole of the right hind leg of a guinea pig in an amount of 500 μg/animal/time. Thereafter, on the 28th day, 200 μl of a suspension of 10^11 cells/ml of the bacterium was intracutaneously inoculated into the right flank of the same guinea pig after the hair at the region was shaved. 24 hours later, the longest length and shortest length of the resultant red coloring were measured, and the product of them was calculated. From the product was calculated the inhibition rate.

[2] = test system: fimbrial protein of Porphyomonas gingivalis; experiment: Immunization of mice with the peptides: antibody titer in serum or saliva by ELISA; format: in vivo; conditions: A405 value by the ELISA method, with FCA, 4 weeks later
Description: (§1) Each peptide synthesized in Example 2 was dissolved in PBS so as to make the concentration 200 μg/ml, the solution was mixed with the same volume of FCA, and the mixture after emulsification was subcutaneously injected into mice at the back (3 animals per group). 4 weeks later, the antibody titer in the serum or saliva against the peptide was assayed by an ELISA method.
The fimbrial protein of Porphyomonas gingivalis was adsorbed on each well of a 96-well microtiter plate for ELISA, and a dilution of the serum with PBS (1/10^5), a dilution of the saliva with PBS (1/500), or a solution obtained by adding each peptide or the fimbrial protein of Porphyomonas gingivalis is to the dilution of the serum or saliva to cause absorption was put in the well. Reaction was conducted at 37° C. for 1 hour, and then assay was conducted by a usual ELISA method.

[3] = Immunization of mice with the peptides: body weight; format: in vivo; conditions: mice immunized with FCA emulsion, 3 animals per group
Description: as §1

## DANYLTGSLT [Comparative peptide, reference compound]
[1]
  Antibody titer, Normal subject group: 0.145
  Antibody titer, Patient group with peridontal disease: 0.196

## Peptide 4: synthetic peptide, epitope of the 41 kD fimbrial subunit protein of Porphyomonas gingivalis; sequence in Table 1, not shown (AAGLIMTAEP)
[1]
  Antibody titer, Normal subject group: 0.197
  Antibody titer, Patient group with peridontal disease: 0.941
Porphyomonas gingivalis
  Degree of redness Longest length × shortest length: 851 mm^2
  Inhibition rate: 56.3%
[2]
  Antibody titer Saliva (1/500) After absorption: 0.12
  Antibody titer Saliva (1/500) Before absorption: 0.49
  Antibody titer Serum (1/10^5) After absorption: 0.13
  Antibody titer Serum (1/10^5) Before absorption: 0.52
[3]
  Body weight (Average g): 27 g

## VMVYNGEQQE [Comparative peptide, reference compound]
[1]
  Antibody titer, Normal subject group: 0.172
  Antibody titer, Patient group with peridontal disease: 0.165

## RTLVVMANTG [Comparative peptide, reference compound]
[1]
  Antibody titer, Normal subject group: 0.161
  Antibody titer, Patient group with peridontal disease: 0.199

## Peptide 5: synthetic peptide, epitope of the 41 kD fimbrial subunit protein of Porphyomonas gingivalis; sequence in Table 1, not shown (TGSLTTFNGA)
[1]
  Antibody titer, Normal subject group: 0.165
  Antibody titer, Patient group with peridontal disease: 0.760
Porphyomonas gingivalis
  Degree of redness Longest length × shortest length: 1063 mm^2
  Inhibition rate: 45.4%
[2]
  Antibody titer Saliva (1/500) After absorption: 0.15
  Antibody titer Saliva (1/500) Before absorption: 0.42
  Antibody titer Serum (1/10^5) After absorption: 0.11
  Antibody titer Serum (1/10^5) Before absorption: 0.45
[3]
  Body weight (Average g): 28 g

## Peptide 2: synthetic peptide, epitope of the 41 kD fimbrial subunit protein of Porphyomonas gingivalis; sequence in Table 1, not shown (EVKALTTELT)
[1]
  Antibody titer, Normal subject group: 0.205
  Antibody titer, Patient group with peridontal disease: 0.566
Porphyomonas gingivalis
  Degree of redness Longest length × shortest length: 1179 mm^2
  Inhibition rate: 39.5%
[2]
  Antibody titer Saliva (1/500) After absorption: 0.17
  Antibody titer Saliva (1/500) Before absorption: 0.36
  Antibody titer Serum (1/10^5) After absorption: 0.15
  Antibody titer Serum (1/10^5) Before absorption: 0.34
[3]
  Body weight (Average g): 26 g

## LCVYGKLQKN [Comparative peptide, reference compound]
[1]
  Antibody titer, Normal subject group: 0.213
  Antibody titer, Patient group with peridontal disease: 0.182

## WLSRNYVAPA [Comparative peptide, reference compound]
[1]
  Antibody titer, Normal subject group: 0.204
  Antibody titer, Patient group with peridontal disease: 0.210

## NHIENDPLKI [Comparative peptide, reference compound]
[1]
  Antibody titer, Normal subject group: 0.201
  Antibody titer, Patient group with peridontal disease: 0.205

## Peptide 6: synthetic peptide, epitope of the 41 kD fimbrial subunit protein of Porphyomonas gingivalis; sequence in Table 1, not shown (TFNGAYTPAN)
[1]
  Antibody titer, Normal subject group: 0.141
  Antibody titer, Patient group with peridontal disease: 0.675
Porphyomonas gingivalis
  Degree of redness Longest length × shortest length: 1112 mm^2
  Inhibition rate: 42.9%
[2]
  Antibody titer Saliva (1/500) After absorption: 0.11
  Antibody titer Saliva (1/500) Before absorption: 0.39
  Antibody titer Serum (1/10^5) After absorption: 0.12
  Antibody titer Serum (1/10^5) Before absorption: 0.41
[3]
  Body weight (Average g): 26 g

## Peptide 3: synthetic peptide, epitope of the 41 kD fimbrial subunit protein of Porphyomonas gingivalis; sequence in Table 1, not shown (AENQEAAGLI)
[1]
  Antibody titer, Normal subject group: 0.214
  Antibody titer, Patient group with peridontal disease: 0.623
Porphyomonas gingivalis
  Degree of redness Longest length × shortest length: 1155 mm^2
  Inhibition rate: 40.7%
[2]
  Antibody titer Saliva (1/500) After absorption: 0.09
  Antibody titer Saliva (1/500) Before absorption: 0.37
  Antibody titer Serum (1/10^5) After absorption: 0.16
  Antibody titer Serum (1/10^5) Before absorption: 0.38
[3]
  Body weight (Average g): 26 g

## Peptide 8: synthetic peptide, epitope of the 41 kD fimbrial subunit protein of Porphyomonas gingivalis; sequence in Table 1, not shown (ANGGTIHPTI)
[1]
  Antibody titer, Normal subject group: 0.182
  Antibody titer, Patient group with peridontal disease: 0.935
Porphyomonas gingivalis
  Degree of redness Longest length × shortest length: 1022 mm^2
  Inhibition rate: 47.5%
[2]
  Antibody titer Saliva (1/500) After absorption: 0.14
  Antibody titer Saliva (1/500) Before absorption: 0.45
  Antibody titer Serum (1/10^5) After absorption: 0.11
  Antibody titer Serum (1/10^5) Before absorption: 0.49
[3]
  Body weight (Average g): 25 g

## Peptide 9: synthetic peptide, epitope of the 41 kD fimbrial subunit protein of Porphyomonas gingivalis; sequence in Table 1, not shown (EGKTYYPVLV)
[1]
  Antibody titer, Normal subject group: 0.186
  Antibody titer, Patient group with peridontal disease: 0.546
Porphyomonas gingivalis
  Degree of redness Longest length × shortest length: 1265 mm^2
  Inhibition rate: 35.0%
[2]
  Antibody titer Saliva (1/500) After absorption: 0.13
  Antibody titer Saliva (1/500) Before absorption: 0.34
  Antibody titer Serum (1/10^5) After absorption: 0.13
  Antibody titer Serum (1/10^5) Before absorption: 0.32
[3]
  Body weight (Average g): 26 g
